In patent EP0162695A1, “6-Oxygenated-1,3,,4,5-Tetrahydrobenz(cd)indol-4-amines” (SMITHKLINE BEECHAM CORPORATION, priority 1984, dated 1985) one finds Kb data, which are given here for one molecule.

The target in this assay is 5-HTl receptor. In words: antagonism of the effect of serotonin in an in vitro dog basilar artery preparation. The class given is biochemical. The text has this: Also, selective 5-HTl receptor antagonist activity of the compounds of formula (I) may be shown by the ability to antagonize the effect of serotonin in an in vitro dog basilar artery preparation, Peroutka et al, Brain Research 259:327-330 (1983).

SMILES strings stand for the structures.

A word on the Kb: it is the affinity of an antagonist, worked out from how it opposes an agonist. A higher Kb goes with lower antagonist affinity.

For `COc1ccc2[nH]cc3c2c1CC(N)C3` (stereo not shown) [example 1, 6-methoxy-l,3,4,5-tetrahydrobenz[cd]indole-4-amine hemioxalate], the Kb amounted to 0.463 µM.
